Like-named read-outs stand apart in the source and are kept apart here.

In assay [1] the target is T1, TRPA1 (cultured rat dorsal root ganglia neurons) (Rattus norvegicus, UniProt Q6RI86).
T1 construct: calcium assay data obtained in primary culture of rat dorsal ganglia neurons; from tissue; host or cells: primary culture of dorsal root ganglia neurons from male SD rats
Kind of assay: PF-4840154 (10 μM)-induced Ca2+ fluorescence measurements in cultured rat dorsal root ganglia neurons. The format is cell-based. The note with it: against 10 μM PF-4840154-induced [Ca2+]i mobilization, primary culture of rat dorsal ganglia neurons. As for the experimental part: PF-4840154 (10 μM)-Induced Ca^2+ Fluorescence Measurements in Cultured Rat Dorsal Root Ganglia Neurons
Male SD rats (˜50 g, Charles River, Italy) were terminally anaesthetized and decapitated. Dorsal root ganglia were removed and placed in cold Hank's balanced salt solution (HBSS) before being transferred to collagenase (2 mg/ml) and trypsin (1 mg/ml) for 35 min at 37° C. The ganglia, placed in cold DMEM supplemented with 10% fetal bovine serum, 10% horse serum, 2 mM L-glutamine, 100 U/ml penicillin and 100 μg/ml streptomycin, were dissociated in single cells by several passages through a series of syringe needles (23G down to 25G). The medium and the ganglia were filtered to remove debris, topped up with 4 ml of DMEM medium and centrifuged (1100 rpm for 6 min). The final cell pellet was re-suspended in DMEM medium [supplemented with 100 ng/ml mouse Nerve Growth Factor (mouse-NGF-7S) and cytosine-β-D-arabinofuranoside free base (ARA-C) 2.5 μM]. The cells were plated on poly-L-lysine (8.3 μM)- and laminin (5 μM)-coated 25 mm glass cover slips and kept for 2 days at 37° C. in a humidified incubator gassed with 5% CO2 and air, then treated with Fura-2-AM-ester (5 μM) in a Ca^2+ buffer solution having the following composition (mM): CaCl2 1.4, KCl 5.4, MgSO4 0.4, NaCl 135, D-glucose 5, HEPES 10 with BSA (0.1%), at pH 7.4, for 40 min at 37° C. The cells were then washed twice with the Ca^2+ buffer solution and transferred to a chamber on the stage of a Nikon eclipse TE300 microscope. Fura-2-AM-ester was excited at […] to indicate relative [Ca^2+]i changes by the F340/F380 ratio recorded with a dynamic image analysis system (Laboratory Automation 2.0, RCS, Florence, Italy) and the cells were allowed (at least 10 min) to attain a stable fluorescence before beginning the experiment. A calibration curve was set up using buffer containing Fura-2-AM-ester and determinant concentrations of free Ca^2+. This curve was then used to convert the data obtained from the F340/F380 ratio to [Ca^2+]i (nM).
All exemplified compounds were tested at the concentration of 10 μM against the calcium uptake induced by 10 μM PF-4840154. For selected examples, the entire concentration response curves were constructed and the respective IC50 value calculated.

In assay [2] the target is T2, native human TRPA1 receptors (Homo sapiens, UniProt O75762).
T2 construct: stably expressing native human TRPA1 receptors were used; endogenous in cells; host or cells: A549 human lung adenocarcinoma epithelial cell line
Kind of assay: PF-4840154 (1 μM)-induced Ca2+ fluorescence measurements in A549 cell line. The format is cell-based. The procedure, abridged:
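A549 cells stably expressing native human TRPA1, Fluo-4 AM loaded; fluorescence Ca2+ read in HBSS with probenecid and Brilliant Black at 36.5 °C. Compounds tested alone for agonism and against 1 μM PF-4840154 for inhibition at initial 10 μM; IC50 from full concentration-response curves for selected compounds.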

The test system of assay [3] is PF-4840154-induced mechanical hyperalgesia in rats. Briefly: Agonist (PF-4840154)-induced mechanical hyperalgesia in rats. The format is in vivo. The note with it: Rattus norvegicus, 30 μmol/kg oral, PF-4840154 0.05 nmol/50 μl/paw intraplantar. The text has this: Agonist (PF-4840154)-Induced Mechanical Hyperalgesia in Rats
The method is used to investigate the anti-hyperalgesic effects of the compounds listed in the present invention following agonist (PF-4840154)-induced hyperalgesic responses. The activity is indicative of TRPA1 receptor occupancy following oral dosing. Specifically, male SD rats (Charles River, Italy) weighing 70-100 g. were used. The anti-hyperalgesic effects were investigated using the electronic dynamometer test. PF-4840154 (Sigma, USA) was used to induce mechanical hyperalgesia. Local, intraplantar injection of PF-4840154 at 0.05 nmol/50 μl/paw caused the reduction of the hind paw withdrawal response induced by mechanical stimuli. Mechanical stimulation was induced in basal condition and 30, 60, 120, 180 and 240 minutes after the oral administration of the antagonists dissolved in 2.5% DMSO and 30% Solutol. Compounds were orally administered (30 μmol/kg/10 ml) to rats 1 hour before the injection of PF-4840154 into the plantar surface of a rat's hind using a micro syringe.

The subject of assay [4] is oxaliplatin-induced mechanical hyperalgesia in rats. Kind of assay: Oxaliplatin-induced mechanical hyperalgesia in rats. The class given is in vivo. Conditions: Rattus norvegicus, 168 h, 30 μmol/kg oral, 7 days post i.v. oxaliplatin 2.5 mg/kg. As for the experimental part: Oxaliplatin-Induced Mechanical Hyperalgesia in Rats
The method described by Nassini et al. (Pain, 2011, 152(7), 1621-31) was used with minor modifications. Restrained rats were treated with a single intravenous bolus injection of oxaliplatin (2.5 mg/kg) dissolved in normal saline. This approach was sufficient to elicit reproducible allodynic behaviour evident 3 days post injection and during the day thereafter. For convenience all acute experiments were conducted 7 days post injection when compounds were orally administered at 30 μmol/kg.

Where [5] appears, read: read-out: % of reversal of mechanical allodynia.
Where [6] appears, read: read-out: Maximal inhibition (%).

T2 sequence (O75762 whole entry): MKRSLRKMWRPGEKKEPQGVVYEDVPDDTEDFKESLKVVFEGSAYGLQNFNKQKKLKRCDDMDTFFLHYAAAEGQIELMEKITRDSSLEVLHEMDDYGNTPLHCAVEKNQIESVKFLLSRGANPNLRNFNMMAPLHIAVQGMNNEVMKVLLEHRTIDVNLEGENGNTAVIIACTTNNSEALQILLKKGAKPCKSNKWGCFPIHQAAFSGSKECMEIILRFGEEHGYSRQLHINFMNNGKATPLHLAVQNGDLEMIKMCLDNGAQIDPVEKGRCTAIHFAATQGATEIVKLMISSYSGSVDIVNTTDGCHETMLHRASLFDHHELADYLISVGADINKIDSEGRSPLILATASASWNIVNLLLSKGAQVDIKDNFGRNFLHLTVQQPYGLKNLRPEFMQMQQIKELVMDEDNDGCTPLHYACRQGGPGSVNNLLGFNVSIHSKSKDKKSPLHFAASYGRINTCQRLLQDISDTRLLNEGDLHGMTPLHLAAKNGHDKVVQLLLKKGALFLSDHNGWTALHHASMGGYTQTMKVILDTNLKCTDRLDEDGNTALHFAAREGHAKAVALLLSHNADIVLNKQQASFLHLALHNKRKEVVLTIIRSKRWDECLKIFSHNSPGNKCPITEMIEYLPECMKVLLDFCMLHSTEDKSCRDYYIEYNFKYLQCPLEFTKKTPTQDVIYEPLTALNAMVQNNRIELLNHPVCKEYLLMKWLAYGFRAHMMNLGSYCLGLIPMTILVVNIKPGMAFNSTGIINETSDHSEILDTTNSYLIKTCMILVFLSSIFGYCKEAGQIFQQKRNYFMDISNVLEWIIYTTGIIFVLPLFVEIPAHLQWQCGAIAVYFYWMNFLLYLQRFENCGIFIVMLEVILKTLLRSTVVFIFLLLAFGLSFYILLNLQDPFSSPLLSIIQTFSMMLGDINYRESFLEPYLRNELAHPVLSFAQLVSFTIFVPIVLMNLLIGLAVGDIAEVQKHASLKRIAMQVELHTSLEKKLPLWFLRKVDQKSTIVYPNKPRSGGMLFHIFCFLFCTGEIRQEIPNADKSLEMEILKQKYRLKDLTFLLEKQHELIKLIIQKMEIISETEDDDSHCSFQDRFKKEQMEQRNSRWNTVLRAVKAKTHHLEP
T1 sequence (Q6RI86 whole entry): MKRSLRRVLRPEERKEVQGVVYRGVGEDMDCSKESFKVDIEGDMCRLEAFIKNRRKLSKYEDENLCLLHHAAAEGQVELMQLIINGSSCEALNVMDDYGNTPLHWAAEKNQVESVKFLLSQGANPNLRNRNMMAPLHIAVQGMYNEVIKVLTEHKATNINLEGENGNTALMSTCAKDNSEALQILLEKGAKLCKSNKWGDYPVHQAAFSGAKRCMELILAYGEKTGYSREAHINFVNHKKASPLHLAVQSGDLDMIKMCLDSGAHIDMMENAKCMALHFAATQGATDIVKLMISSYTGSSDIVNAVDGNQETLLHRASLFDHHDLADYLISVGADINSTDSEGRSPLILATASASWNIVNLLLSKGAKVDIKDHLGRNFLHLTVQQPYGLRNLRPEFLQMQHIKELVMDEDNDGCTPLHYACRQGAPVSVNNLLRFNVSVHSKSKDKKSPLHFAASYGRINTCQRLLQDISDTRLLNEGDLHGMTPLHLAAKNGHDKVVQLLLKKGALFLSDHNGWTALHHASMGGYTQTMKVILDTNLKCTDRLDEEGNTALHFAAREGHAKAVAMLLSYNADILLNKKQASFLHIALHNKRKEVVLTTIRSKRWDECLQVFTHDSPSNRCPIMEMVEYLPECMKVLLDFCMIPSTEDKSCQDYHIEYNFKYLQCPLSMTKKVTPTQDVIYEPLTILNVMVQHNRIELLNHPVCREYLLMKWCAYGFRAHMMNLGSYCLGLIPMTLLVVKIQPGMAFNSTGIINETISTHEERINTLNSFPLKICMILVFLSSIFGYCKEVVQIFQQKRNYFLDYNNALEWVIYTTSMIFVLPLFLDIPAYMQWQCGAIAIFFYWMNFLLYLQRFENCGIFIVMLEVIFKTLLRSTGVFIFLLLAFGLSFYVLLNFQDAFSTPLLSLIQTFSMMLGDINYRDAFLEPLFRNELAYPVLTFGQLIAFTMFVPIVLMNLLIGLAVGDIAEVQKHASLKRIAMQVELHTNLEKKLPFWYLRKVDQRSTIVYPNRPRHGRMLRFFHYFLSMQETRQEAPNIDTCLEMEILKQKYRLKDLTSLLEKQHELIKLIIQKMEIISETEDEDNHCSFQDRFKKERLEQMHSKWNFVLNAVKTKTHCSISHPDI

Consider `C=C(C(=O)NCc1ccnc(-c2ccc(C(F)(F)F)cc2)c1)N(CC)S(=O)(=O)c1ccc(F)cc1` [Example 1, 2-[ethyl-(4-fluorophenyl)sulfonyl-amino]-N-[[2-[4-(trifluoromethyl)phenyl]-4-pyridyl]methyl]prop-2-enamide], for which the IC50 in assay [1] stood at 14 nM; in assay [2] (against PF-4840154 (1 μM)-evoked [Ca2+]i mobilization, A549 cells) it was 15 nM. Also, at 10 µM the inhibition in assay [2] (10 μM compound against 1 μM PF-4840154, A549 cells) was 100%. The inhibition in vivo at 30 µmol/kg in assay [3] (setting [5]) was found to be 80%; in assay [3] (setting [6]), 80%; in assay [4] (setting [5]), 97%; in assay [4] (setting [6]), 97%.

For orientation: IC50 means the concentration needed to halve the response being measured. A high value points to a need for much substance. The inhibition is the drop in the measured response relative to a control, in per cent.
